Test results: the supplement of paper PMC11208160

Assay: recombinant barcode read abundance after kanamycin selection (control-corrected) (log10(CPM+1)); higher = more efficient recombination; sequences stand for … in AGTGCAGAGAAAATCGGCCAGTTTTCTCTGCCTGCAGTCCGCATGCCGT…AGATTTATGCAGCGGACTGCCTTTCTCCCAAAGTGATAAACCGGACAGTATCATGGACCGGTTTTCCCGGTAATCCGTATTTGCAAGGTTGGTTTCACT; site = the 11-nt target
Outline: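 IS621 bridge RNA target-binding loops were paired with targets in a pooled library tested in E. coli. After co-electroporation with a donor plasmid, cells were plated in two replicates on chloramphenicol/ampicillin LB agar (control) and on chloramphenicol/ampicillin/kanamycin carrying 0.1 mM IPTG. Barcodes at recombinant junctions were counted as counts per million, averaged and control-corrected to give recombination efficiency. Values are log10(CPM+1).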
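Also: IS621 recombinase and bridge RNA in Escherichia coli cells.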

| Sequence | recombinant barcode read abundance (log10) |
| --- | --- |
| ATGTCTCCTTGGGTTCTAACCTGTTGCCT (site TTGTCTCCTAG) | 0.228 |
| ATTAATCCTTGGGTTCTAACCTGTTGCCT (site ATTAAATCTAG) | 0.441 |
| ATTAATCCTTGGGTTCTAACCTGTTGCCT (site ATTAATCCTAG) | 0.0839 |
| ATTACTACTTGGGTTCTAACCTGTTGCCT (site AATACTACTAG) | 0.124 |
| ATTACTACTTGGGTTCTAACCTGTTGCCT (site ACTACTACTAG) | 0.0886 |
| ATTACTACTTGGGTTCTAACCTGTTGCCT (site AGTACTACTAG) | 0.343 |
| ATTACTACTTGGGTTCTAACCTGTTGCCT (site ATTACTACTAG) | 0.411 |
| ATTAGGGCTTGGGTTCTAACCTGTTGCCG (site ATTAGGGCTCG) | 0.413 |
| ATTAGGGCTTGGGTTCTAACCTGTTGCCG (site ATTGGGGCTCT) | 0.192 |
| ATTCAAACTTGGGTTCTAACCTGTTGCCT (site ATTCAAACTAG) | 0.788 |
| ATTCAAACTTGGGTTCTAACCTGTTGCCT (site GTTCAAACTAT) | 0.088 |
| ATTCGGGCTTGGGTTCTAACCTGTTGCGT (site ATTCGAGCTGC) | 0.0603 |
| ATTCGGGCTTGGGTTCTAACCTGTTGCGT (site ATTCGGGCTAC) | 2.07 |
| ATTGGGTCTTGGGTTCTAACCTGTTGCCT (site ATTGGATCTAG) | 0.445 |
| ATTGGGTCTTGGGTTCTAACCTGTTGCCT (site ATTGGCTCTAG) | 0.0688 |
| ATTGGGTCTTGGGTTCTAACCTGTTGCCT (site ATTGGGTCTAG) | 0.818 |
| ATTGGGTCTTGGGTTCTAACCTGTTGCCT (site ATTGGTTCTAG) | 0.102 |
| ATTTAACCTTGGGTTCTAACCTGTTGCGT (site ATTTAACCTAC) | 2.11 |
| ATTTAACCTTGGGTTCTAACCTGTTGCGT (site GGGGTGTCTCG) | 0.0805 |
| ATTTCGACTTGGGTTCTAACCTGTTGCCT (site AATTCGACTAG) | 0.0716 |
| ATTTCGACTTGGGTTCTAACCTGTTGCCT (site ACTTCGACTAG) | 0.044 |
| ATTTCGACTTGGGTTCTAACCTGTTGCCT (site AGTTCGACTAG) | 0.142 |
| ATTTCGACTTGGGTTCTAACCTGTTGCCT (site ATTTCGACTAG) | 0.16 |
| CAAACATCTTGGGTTCTAACCTGTTGCCT (site CAAACAACTAG) | 0.129 |
| CAAACATCTTGGGTTCTAACCTGTTGCCT (site CAAACACCTAG) | 0.0425 |
| CAAACATCTTGGGTTCTAACCTGTTGCCT (site CAAACAGCTAG) | 0.0169 |

| Sequence | recombinant barcode read abundance (log10) |
| --- | --- |
| CAAACATCTTGGGTTCTAACCTGTTGCCT (site CAAACATCTAG) | 0.162 |
| CAAACTACTTGGGTTCTAACCTGTTGCCA (site CAAACTACTTG) | 0.0171 |
| CAAACTACTTGGGTTCTAACCTGTTGCCA (site TTGCGGCCTCT) | 0.078 |
| CAAAGAGCTTGGGTTCTAACCTGTTGCTG (site CAAAGAGCTCA) | 1.38 |
| CAAAGAGCTTGGGTTCTAACCTGTTGCTG (site GTCCAGCCTGT) | 0.0339 |
| CAAAGTCCTTGGGTTCTAACCTGTTGCAT (site CAAAGTCCTAA) | 0.191 |
| CAAAGTCCTTGGGTTCTAACCTGTTGCAT (site CAAAGTCCTAC) | 0.0225 |
| CAAAGTCCTTGGGTTCTAACCTGTTGCAT (site CAAAGTCCTAG) | 0.59 |
| CAAAGTCCTTGGGTTCTAACCTGTTGCAT (site CAAAGTCCTAT) | 1.46 |
| CAAAGTCCTTGGGTTCTAACCTGTTGCGT (site CAAAGTCCTAA) | 0.128 |
| CAAAGTCCTTGGGTTCTAACCTGTTGCGT (site CAAAGTCCTAC) | 2.24 |
| CAAAGTCCTTGGGTTCTAACCTGTTGCGT (site CAAAGTCCTAG) | 0.294 |
| CAAAGTCCTTGGGTTCTAACCTGTTGCGT (site CAAAGTCCTAT) | 0.932 |
| CAAATTACTTGGGTTCTAACCTGTTGCCT (site CAAATTACTAG) | 0.0574 |
| CAAATTACTTGGGTTCTAACCTGTTGCCT (site CAGATGACTAG) | 0.161 |
| CAACCTTCTTGGGTTCTAACCTGTTGCCT (site CAACCTTCTAG) | 0.7 |
| CAACCTTCTTGGGTTCTAACCTGTTGCCT (site CTACCTTCTAG) | 0.025 |
| CAAGACCCTTGGGTTCTAACCTGTTGCCT (site CAAGACCCTAG) | 2.5 |
| CAAGACCCTTGGGTTCTAACCTGTTGCCT (site CACGACCCTAG) | 0.763 |
| CAAGACCCTTGGGTTCTAACCTGTTGCCT (site CAGGACCCTAG) | 1.05 |
| CAAGACCCTTGGGTTCTAACCTGTTGCCT (site CATGACCCTAG) | 1.17 |
| CAAGAGTCTTGGGTTCTAACCTGTTGCTT (site CAAGAGTCTAA) | 2.26 |
| CAAGAGTCTTGGGTTCTAACCTGTTGCTT (site CGAGAGACTAA) | 0.178 |
| CAAGGGACTTGGGTTCTAACCTGTTGCGG (site CAAGGGACTCC) | 2.33 |
| CAAGGGACTTGGGTTCTAACCTGTTGCGG (site CAGGGGACTCG) | 0.0306 |
| CAAGTCCCTTGGGTTCTAACCTGTTGCCT (site AAAGTCCCTAG) | 0.0441 |

| Sequence | recombinant barcode read abundance (log10) |
| --- | --- |
| CAAGTCCCTTGGGTTCTAACCTGTTGCCT (site CAAGTCCCTAG) | 1.9 |
| CAAGTCCCTTGGGTTCTAACCTGTTGCCT (site GAAGTCCCTAG) | 0.207 |
| CAAGTCCCTTGGGTTCTAACCTGTTGCCT (site TAAGTCCCTAG) | 0.211 |
| CAAGTCGCTTGGGTTCTAACCTGTTGCCT (site CAAGTAGCTAG) | 0.219 |
| CAAGTCGCTTGGGTTCTAACCTGTTGCCT (site CAAGTCGCTAG) | 1.29 |
| CAAGTCGCTTGGGTTCTAACCTGTTGCCT (site CAAGTGGCTAG) | 0.458 |
| CAAGTCGCTTGGGTTCTAACCTGTTGCCT (site CAAGTTGCTAG) | 0.0227 |
| CAATCCTCTTGGGTTCTAACCTGTTGCCT (site AAATCCTCTAG) | 0.0785 |
| CAATCCTCTTGGGTTCTAACCTGTTGCCT (site CAATCCTCTAG) | 1.2 |
| CAATCCTCTTGGGTTCTAACCTGTTGCCT (site GAATCCTCTAG) | 0.0242 |
| CAATCCTCTTGGGTTCTAACCTGTTGCCT (site TAATCCTCTAG) | 0.127 |
| CAATCCTCTTGGGTTCTAACCTGTTGCTA (site CAATCCTCTTA) | 0.443 |
| CAATCCTCTTGGGTTCTAACCTGTTGCTA (site TCTGTAACTAG) | 0.0981 |
| CAATGGCCTTGGGTTCTAACCTGTTGCCT (site CAAAGGCCTAG) | 0.126 |
| CAATGGCCTTGGGTTCTAACCTGTTGCCT (site CAACGGCCTAG) | 0.253 |
| CAATGGCCTTGGGTTCTAACCTGTTGCCT (site CAAGGGCCTAG) | 0.27 |
| CAATGGCCTTGGGTTCTAACCTGTTGCCT (site CAATGGCCTAG) | 0.571 |
| CACAAAGCTTGGGTTCTAACCTGTTGCCT (site CACAAAGCTAG) | 0.84 |
| CACAAAGCTTGGGTTCTAACCTGTTGCCT (site CACACAGCTAG) | 0.143 |
| CACAACACTTGGGTTCTAACCTGTTGCCT (site CACAACACTAG) | 1.84 |
| CACAACACTTGGGTTCTAACCTGTTGCCT (site CACACCACTAG) | 0.287 |
| CACAACACTTGGGTTCTAACCTGTTGCCT (site CACAGCACTAG) | 0.0135 |
| CACAACACTTGGGTTCTAACCTGTTGCCT (site CACATCACTAG) | 0.0296 |
| CACAAGTCTTGGGTTCTAACCTGTTGCGT (site CACAAGTCTAC) | 1.38 |
| CACAAGTCTTGGGTTCTAACCTGTTGCGT (site CACCAGTCTCC) | 0.0392 |
